Consider five compounds from patent US20110059956A1, “THERAPEUTIC AGENT FOR PAIN” (ZERIA PHARMACEUTICAL CO., LTD., priority 2008, published 2011).

Test [1] relates to nociceptive pain caused by thermal stimulation. Conditions: cited from earlier work; for generation of morphine resistance: mouse, thermal stimulation, Non-Patent Documents 5 and 6.
Test [2] deals with nociceptive pain triggered by formalin. Conditions: cited from earlier work; for analgesic effect, sole use: Non-Patent Document 11.
Test [3] concerns allodynia in B16-BL6 melanoma cancer pain model. Nature of the test: cancer pain model (B16-BL6 melanoma transplanted into paw), von Frey pain threshold, single administration. In kind it is in vivo, mouse. As to conditions: peroral single administration 100 mg/kg on day 14 after cancer transplantation; FIG. 1. From the text:
Then, the change in pain threshold was monitored. Compound (A1) was suspended in 0.5% CMC-Na solution before administration.

Test [4] shares this test system. Description: cancer pain model (B16-BL6 melanoma), von Frey pain threshold, repeated administration. As to conditions: 100 mg/kg orally once a day for eight days from day 7 after cancer transplantation; FIG. 2. Format: in vivo, mouse. The method, then: From day 7 after cancer transplantation, compound (A1) or L-365,260 (CCK2 receptor antagonist) (100 mg/kg) was orally administered once a day for eight days repeatedly, and the change in pain threshold was monitored. […] On day 7 after cancer transplantation, allodynia occurred, and a considerable drop in pain threshold occurred on day 14 after cancer transplantation.

The test system of a further test is neuropathic pain. As to conditions: cited from earlier work.
Test [5] deals with nociceptive pain caused by thermal stimulation. Conditions: Non-Patent Document 7, cited from earlier work.
A further test concerns thermal hyperalgesia. As to conditions: Non-Patent Document 12; cited from earlier work.
Another test has as its system pancreatic cancer. Conditions: Non-Patent Document 15, cited from earlier work.
For the next test, the system named is cancer pain. Conditions: clinical, combination with morphine; Non-Patent Document 10; cited from earlier work.

Structures can show the parent of a compound that is named as a salt. Where two headings read alike, the source gives them in different places.

As to `C[C@](Cc1c[nH]c2ccccc12)(NC(=O)OC1[C@H]2C[C@@H]3C[C@@H](C[C@H]1C3)C2)C(=O)NC[C@H](NC(=O)CCC(=O)O)c1ccccc1` (stereo partly drawn) [CI-988], the “generation of morphine resistance” value in test [1] was “suppress generation of morphine resistance”. In addition, the “analgesic effect of morphine on nociceptive pain” value in [2] (combination with morphine, Non-Patent Document 8) was “potentiates the analgesic effect of morphine”.
For the compound `Cc1cccc(NC(=O)N[C@@H]2N=C(c3ccccc3)c3ccccc3N(C)C2=O)c1` [L-365,260], the “change in pain threshold / improvement of allodynia” value is “no effect on improvement of allodynia” in [3] and “no effect on improvement of allodynia was observed” in test [4]. Moreover, the “analgesic effect of morphine on allodynia” value in the test on neuropathic pain (combination with morphine, Non-Patent Document 9) is reported as “potentiates the analgesic effect of morphine”. In addition, the “generation of morphine resistance” value in the test on neuropathic pain (rat neuropathic pain model, Non-Patent Document 4) was “suppress generation of morphine resistance”; in [1], “suppress generation of morphine resistance”. Further, the “analgesic effect, single use” value in the test on neuropathic pain (single use, Non-Patent Document 9) was “exhibits no analgesic effect”; in [1] (single use, Non-Patent Document 13), “exhibits no analgesic effect”; in [5] (single use) it was “exhibits no analgesic effect”. In addition, the “analgesic effect of morphine on nociceptive pain” value in test [5] (combination with morphine) is on record as “potentiates the analgesic effect of morphine”. Moreover, in test [2], the “analgesic effect, sole use” value is listed as “exhibits the analgesic effect”.
`Cc1cccc(NC(=O)N[C@@H]2N=C(c3ccccc3)c3ccccc3N(CC(=O)c3ccccc3C)C2=O)c1` [YM022]: the “analgesic effect, sole use, on thermal hyperalgesia” value in the test on thermal hyperalgesia is “an analgesic effect”.
`Nc1ccn([C@@H]2O[C@H](CO)[C@@H](O)C2(F)F)c(=O)n1` [gemcitabine hydrochloride]: the pain relief effect entry in the test with pancreatic cancer (pancreatic cancer patients) is given as “excellent pain relief effect”. In addition, in the test on pancreatic cancer (pancreatic cancer), the tumor regression effect entry is “comparatively weak tumor regression effect”.
As for `CCCN(CCC)C(=O)C(CCC(=O)O)NC(=O)c1ccccc1` (stereo not drawn) [proglumide], the “change in pain threshold / improvement of allodynia” value in test [3] is “no effect on improvement of allodynia”. Besides, the “analgesic effect, sole use” value in test [2] is recorded as “exhibits the analgesic effect”. In the test on cancer pain, the “analgesic effect of morphine on cancer pain” value is given as “potentiates the analgesic effect of morphine”.
